Measured values reported in patent US11638723B2, “Method for generating T cells progenitors” (Assistance Publique—Hopitaux de Paris, priority 2017, dated 2023).

How the values were obtained:
[1] = molecular target: T1, Aryl hydrocarbon/Dioxin receptor (AhR) (Homo sapiens, UniProt P35869); conditions: cited from earlier work
T1 sequence (P35869 11-848): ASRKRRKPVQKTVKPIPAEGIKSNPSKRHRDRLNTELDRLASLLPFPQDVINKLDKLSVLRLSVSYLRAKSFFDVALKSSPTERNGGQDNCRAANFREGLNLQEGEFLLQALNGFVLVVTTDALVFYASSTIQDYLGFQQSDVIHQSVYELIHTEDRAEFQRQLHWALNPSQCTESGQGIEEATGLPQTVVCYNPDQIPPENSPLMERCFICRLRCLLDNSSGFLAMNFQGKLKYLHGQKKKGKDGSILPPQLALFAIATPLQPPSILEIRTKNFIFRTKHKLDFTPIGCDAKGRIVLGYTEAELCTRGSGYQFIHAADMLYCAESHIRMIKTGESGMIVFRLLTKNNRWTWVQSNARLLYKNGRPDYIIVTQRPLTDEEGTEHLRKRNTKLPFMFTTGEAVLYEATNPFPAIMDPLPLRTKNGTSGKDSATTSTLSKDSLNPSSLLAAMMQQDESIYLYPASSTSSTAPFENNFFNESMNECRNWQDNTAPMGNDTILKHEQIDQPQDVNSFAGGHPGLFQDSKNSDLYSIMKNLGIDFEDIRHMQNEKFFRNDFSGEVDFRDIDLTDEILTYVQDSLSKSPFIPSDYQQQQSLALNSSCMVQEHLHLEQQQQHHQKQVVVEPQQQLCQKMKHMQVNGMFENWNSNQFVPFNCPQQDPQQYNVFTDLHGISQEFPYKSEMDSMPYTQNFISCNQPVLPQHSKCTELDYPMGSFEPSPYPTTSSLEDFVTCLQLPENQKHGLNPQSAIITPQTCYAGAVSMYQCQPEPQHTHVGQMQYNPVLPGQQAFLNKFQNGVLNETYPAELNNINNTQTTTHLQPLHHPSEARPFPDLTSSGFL

[2] = test system: CD34+ cells from cord blood; assay: DL-4 culture of CD34+ cells, T-cell precursor generation (flow cytometry); format: cell-based, human; conditions: FIG. 9
Method: CD34+ cells from human CB or mobilized peripheral blood samples were cultured in 24-well plates or 6-well plates that had been coated with recombinant human fibronection (RetroNectin®, Clontech/Takara) and DL-4 (5 μg/ml, PX'Therapeutics, Grenoble, France). Coating was performed for 2 h at 37° C., DL-4 coated wells were then blocked with bovine serum albumin 2% (BSA) in phosphate-buffered saline (PBS) for 30 minutes at 37° C. and washed with PBS. […] Cultured cells were analyzed by fluorescence-activated cell sorting (FACS) after 3 and 7 days of culture on DL-4 respectively to exclude CD34-/CD7-myeloid cells from subsequent analyses.
Human cells were stained and analyzed using a Gallios analyzer (Beckman Coulter, Krefeld, Germany). […] The data were analyzed using FlowJo software (Treestar, Ashland, Oreg.) after gating on viable, 7AAD-negative cells.
The data were analyzed using FlowJo software (version 10.2, Treestar, Ashland, Oreg.) after gating on viable, 7AAD-negative cells.

DL-4 T-cell precursors = assay: Analysis of T cell receptor rearrangement; format: cell-based, human
Method: TCR gene rearrangement analysis was performed in duplicate and on the two independently purified subsets (average is shown). TCR-δ quantification (D δ2-D δ3, D δ2-J δ1, and D δ3-J δ1) was performed with the listed sets of primers and probes. The analysis of TCR rearrangements by multiplex fluorescent PCR was performed by separation of fluorochrome-labeled single stand PCR products in a capillary sequencing polymer and detected via automated laser scanning.

## Cc1ccccc1N=Nc1ccc(NC(=O)c2ccnn2C)c(C)c1 [CH 223191]
[1]
  IC50: 30 nM

## CC(C)n1cnc2c(NCCc3ccc(O)cc3)nc(-c3csc4ccccc34)nc21 [SR1, 4-(2-(2-(Benzo[b]thiophen-3-yl)-9-isopropyl-9H-purin-6-ylamino)ethyl)phenol]
[2]
  T-cell differentiation, CD5+CD7+ cells at day 7: accelerates T-cell differentiation
DL-4 T-cell precursors; CB cells
  TCRdelta rearrangements: Detection of D52-D53 rearrangements
DL-4 T-cell precursors; after 7 days of culture
  signs of TCR rearrangement: do not exhibit any signs of TCR rearrangement
